According to patent US8465921B2, “Hybridization and mismatch discrimination using oligonucleotides conjugated to minor groove binders” (Elitech Holding B.V., priority 1995, dated 2013):

Legend:
[1] = tested on: complementary oligonucleotide; assay: Thermal denaturation of hybrids of ODNs and MGB-ODN conjugates with their complements (Table 6); type: binding; details: 2 μM ODN, 1:1 with complement; 140 mM KCl, 10 mM MgCl2, 20 mM HEPES-HCl (pH 7.2); 0.5° C./min
Experimental: Hybrids formed between MGB-oligonucleotide conjugates or unmodified oligonucleotides and their complements were melted at a rate of 0.5° C./min in 140 mM KCl, 10 mM MgCl2 and 20 mM HEPES-HCl (pH 7.2) on a Lambda 2S (Perkin Elmer) spectrophotometer with a PTP-6 automatic multicell temperature programmer. Each oligonucleotide (2 μM) was mixed with sufficient complementary oligonucleotide to give a 1:1 ratio. Prior to melting, samples were denatured at 100° C. and then cooled to the starting temperature over a 10 min period. The melting temperatures (Tm) of the hybrids were determined from the derivative maxima and collected in Table 6. In the “sequence” column of Table 6, MGB refers to the presence of CDPI3 conjugated through a hexylamine linker esterified to the 5′-phosphate group of the oligonucleotide (see FIG. 2).

[2] = tested on: E. coli supF gene contained in the plasmid pSP189; assay: Hydrolyzable probe assay with ppG-substituted 15-mer probe (Example 3); type: biochemical; details: annealing/elongation at 75° C. (FIG. 6)
Text: Further increases in discriminatory ability of a MGB-oligonucleotide conjugate are obtained when the conjugate also contains a pyrazolo[3,4-d]pyrimidine nucleotide analogue. In this system, the target sequence is located in the E. coli supF gene contained in the plasmid pSP189 (FIG. 5, SEQ ID No.: 40). See Parris et al. (1992) Gene 117: 1-5. Binding sites for the primers used for amplification are indicated as Primer 1 and Primer 2, with Primer 1 having a sequence and polarity that is identical to that shown in FIG. 5, and Primer 2 having a sequence and polarity that is the reverse complement to that shown in FIG. 5. A 15-mer probe, labeled with fluorescein at the 5′-end, and with TAMRA and CDPI3 at the 3′-end, was designed to be complementary to a region within the approximately 375 nucleotides between the primers, as indicated in FIG. 5. This probe was tested using a series of templates, each containing a different single-nucleotide mismatch with the probe sequence, as shown in FIG. 5 and described infra.
The 15-nucleotide region of the template that is complementary to the probe used in this study was modified to generate a series of point mutations, as shown in FIG. 5. Each of the mutant templates was used in a separate assay with the 15-mer probe. The mutant sequences within this region of the template were as follows, with the mismatched nucleotide indicated by bold underlining: […]

[3] = tested on: HIA DQβ1 0302 allele in BSM cells; assay: Sequence-specific alkylation of a gene in cultured human cells (cell culture crosslinking, LM-PCR); type: cell-based
exact complement = assay: Tm of 8-mer oligonucleotides with varying A + T content, with and without MGB (Table 11); type: binding; details: MGB-conjugated 8-mer hybridized with its exact complement
Experimental: Short oligonucleotides of differing A+T content, conjugated to a MGB, were used to investigate the effect of base composition on Tm for MGB-short oligonucleotide conjugates (Table 11). Tms were determined on a Perkin Elmer) λ2S UV/VIS spectrophotometer, equipped with a PTP-6 temperature controller, using the PECSS software package.

[4] = tested on: long single stranded DNA template; assay: Primer extension experiment (blockage of T7 DNA polymerase by ODN); type: biochemical; details: template 5×10^−10 M, primer 4×10^−8 M, blocking ODN 10^−9 M; 15 min at 45° C.; denaturing gel
Experimental: In this experiment, primer extension occurs with the enzyme T7 DNA polymerase that works from the 5′ end of a template strand. A 16-mer ODN-MGB which was complementary in the Watson Crick sense to a target sequence on the template strand was incubated with a long single stranded DNA template and the T7 DNA polymerase enzyme. […] The minor groove binder was the pyrroloindole tripeptide shown in this application in Table 5. When there was a single mismatch in the sequence specificity of the 16-mer to the target, primer extension was not blocked. Primer extension Was also not blocked when the minor groove binder moiety was attached to the 3′ end of the 16-mer. Primer extension was also not blocked when the sequence specific 16-mer and the free minor groove binder molecule (Compound 3d, not covalently attached to the ODN) was incubated with the template and the enzyme. […] (See Nucleic Acid Research (1993) 21: 5332-5336).
Primer extension reactions were performed as previously described by Lee, et al., (1994) Biochemistry 33: 6024-6030. The final concentrations of template, primer and blocking ODMs were 5×10^−10 M, 4×10^−8 M and 10^−9 M, respectively. Primer extension was carried out for 15 min at 45° C. and the products were analyzed by denaturing gel electrophoresis as described in the reference. […]

1 (DNA ATAAAACAGAGGTGAG; DNA, backbone not given here) [compound 1]
Tm [1]: 45 °C

2 (DNA ATAAAACAGAGG; DNA, backbone not given here) [compound 2]
Tm [1]: 39 °C

3 (DNA ATAAAACAGA; DNA, backbone not given here) [compound 3]
Tm [1]: 24 °C

4 (DNA TAATAACGTTCGGGCA; DNA, backbone not given here) [compound 4]
Tm [1]: 50 °C

5 (DNA ATAACG; DNA, backbone not given here) [compound 5]
Tm [1]: 16 °C

5'-GGGTTCCCGAGCGGC (chemistry not fully specified) [MGB-conjugated 15-mer, 5′-fluorescein, 3′-TAMRA and CDPI3 probe, all guanine residues replaced by ppG]
generation of signal with single-base mismatch [2]: completely suppressed
level of signal with perfect match [2]: no effect on the level of signal

5′-GGTTATTTTTGAAGATACGAATTTCUCCAGAGACACAGCAGGATTTGTCA-CDPI3 [CDPI3-containing 50-mer]
alkylation of the targeted site ([3]; 1-50 μM, […], LM-PCR, sequencing gel): had bound to and alkylated the targeted site
efficiency of sequence specific alkylation of the 0302 allele versus the same ODN without the MGB ([3]; […] at 37° C.): 10 fold

5′-MGB-CAATAATA: 8-mer MGB-oligonucleotide conjugate
Tm + MGB (exact complement): 45 °C

8 (DNA CGGGCAAA; DNA, backbone not given here) [compound 8]
Tm [1]: 25 °C

9 (DNA CGGGCAAAGGATTTAA; DNA, backbone not given here) [compound 9]
Tm [1]: 47 °C

10 (DNA GGCAAA; DNA, backbone not given here) [compound 10]
Tm [1]: <17 °C

11 (DNA CGGCTCTA; DNA, backbone not given here) [compound 11]
Tm [1]: 23 °C

12 (DNA CGGCTCTAATCTATTA; DNA, backbone not given here) [compound 12]
Tm [1]: 43 °C

13 (DNA TATTTTAGATAACCTT; DNA, backbone not given here) [compound 13]
Tm [1]: 34 °C

[3-carbamoyl-1,2-dihydro-3H-pyrrolo[3,2-e]indole-7-carbox]-1-amido-3-propanol Trmer [Compound 3d]
blockage of primer extension by T7 DNA polymerase [4]: not blocked
